In patent US20050234046A1 (Kalypsys, Inc., priority 2004, published 2005):

Columns and labels:
Test in all cases: Transient transfection (transactivation) assay in CV-1 cells, GAL4-PPAR chimera, luciferase reporter
Assay type in all cases: cell-based
[1] = molecular target: T1, PPAR delta (Homo sapiens, UniProt Q03181)
T1 construct: expressed in transfected cells; host or cells: CV-1 cells
T1 sequence (Q03181 211-439 limits assumed): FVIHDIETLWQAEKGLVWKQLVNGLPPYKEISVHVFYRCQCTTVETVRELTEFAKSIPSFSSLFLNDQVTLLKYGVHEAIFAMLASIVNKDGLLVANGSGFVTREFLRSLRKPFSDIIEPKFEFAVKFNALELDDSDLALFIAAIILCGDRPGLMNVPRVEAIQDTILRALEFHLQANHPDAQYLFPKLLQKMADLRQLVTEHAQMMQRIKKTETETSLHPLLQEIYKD

[2] = molecular target: T2, PPAR alpha (Homo sapiens, UniProt Q07869)
T2 construct: expressed in transfected cells; host or cells: CV-1 cells
T2 sequence (Q07869 239-466 limits assumed): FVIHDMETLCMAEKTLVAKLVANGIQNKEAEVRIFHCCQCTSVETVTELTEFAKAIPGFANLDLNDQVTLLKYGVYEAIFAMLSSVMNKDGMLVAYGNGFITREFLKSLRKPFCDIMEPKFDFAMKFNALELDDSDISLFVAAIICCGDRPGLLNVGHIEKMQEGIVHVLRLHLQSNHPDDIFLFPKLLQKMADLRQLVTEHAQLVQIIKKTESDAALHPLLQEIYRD
Summary of the method: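 GAL4 DNA-binding domain fused to PPAR ligand binding domain, co-transfected into CV-1 cells with a luciferase reporter carrying four or five GAL4 sites. Replated cells in phenol-red free DME with 5% delipidated calf serum were treated with compound or 1% DMSO for 20-24 hours; luciferase read for EC50 and efficacy.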

[3] = molecular target: T3, PPAR gamma (Homo sapiens, UniProt P37231)
T3 construct: expressed in transfected cells; host or cells: CV-1 cells
T3 sequence (P37231 238-503 limits assumed): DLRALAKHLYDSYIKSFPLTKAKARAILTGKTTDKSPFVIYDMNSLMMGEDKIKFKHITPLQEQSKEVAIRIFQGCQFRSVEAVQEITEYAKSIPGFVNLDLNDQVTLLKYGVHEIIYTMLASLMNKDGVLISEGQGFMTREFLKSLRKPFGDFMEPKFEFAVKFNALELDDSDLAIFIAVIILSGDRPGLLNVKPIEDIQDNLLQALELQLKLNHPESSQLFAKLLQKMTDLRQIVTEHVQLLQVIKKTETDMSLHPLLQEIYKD

Structure (SMILES)	EC50 [1] [µM]	EC50 [2] [µM]	EC50 [3] [µM]
C[C@@H]1CN(c2ccc(OC(F)(F)F)cc2)C[C@H](C)N1S(=O)(=O)c1cccc(CC(=O)O)c1 [Example 109, {3-[2,6-Dimethyl-4-(4-trifluoromethoxy-phenyl)-piperazine-1-sulfonyl]-phenyl}-acetic acid]	< 5	5 to 100	> 100
Cc1cc(CC(=O)O)cc(S(=O)(=O)N2[C@H](C)CN(c3ccc(OC(F)(F)F)cc3)C[C@@H]2C)c1 [Example 110, {3-[2,6-Dimethyl-4-(4-trifluoromethoxy-phenyl)-piperazine-1-sulfonyl]-5-methyl-phenyl}-acetic acid]	< 5	5 to 100	5 to 100
C[C@@H]1CN(c2ccc(OC(F)(F)F)cc2)C[C@H](C)N1S(=O)(=O)c1cc(CC(=O)O)cc(C(F)(F)F)c1 [Example 111, {3-[2,6-Dimethyl-4-(4-trifluoromethoxy-phenyl)-piperazine-1-sulfonyl]-5-trifluoromethyl-phenyl}-acetic acid]	< 5	5 to 100	5 to 100
Cc1cc(CC(=O)O)cc(S(=O)(=O)N2[C@H](C)CN(c3ccc(C(F)(F)F)c(Cl)c3)C[C@@H]2C)c1 [Example 112, {3-[4-(3-Chloro-4-trifluoromethyl-phenyl)-2,6-dimethyl-piperazine-1-sulfonyl]-5-methyl-phenyl}-acetic acid]	< 5	5 to 100	> 100
C[C@@H]1CN(c2ccc(C(F)(F)F)c(F)c2)C[C@H](C)N1S(=O)(=O)c1cccc(CC(=O)O)c1 [Example 113, {3-[4-(3-Fluoro-4-trifluoromethyl-phenyl)-2,6-dimethyl-piperazine-1-sulfonyl]-phenyl}-acetic acid]	< 5	5 to 100	> 100
C[C@@H]1CN(c2ccc(C(F)(F)F)c(Cl)c2)C[C@H](C)N1S(=O)(=O)c1cccc(CC(=O)O)c1 [Example 114, {3-[4-(3-Chloro-4-trifluoromethyl-phenyl)-2,6-dimethyl-piperazine-1-sulfonyl]-phenyl}-acetic acid]	< 5	5 to 100	> 100
Cc1cccc(N2CCN(S(=O)(=O)c3cccc(CC(=O)O)c3)CC2C)c1 (stereo not drawn) [Example 118, [3-(3-methyl-4-m-tolyl-piperazine-1-sulfonyl)-phenyl]-acetic acid]	5 to 100	> 100	5 to 100
O=C(O)Cc1cccc(S(=O)(=O)N2CCN(CCc3ccccc3)CC2)c1 [Example 121, [3-(4-phenethyl-piperazine-1-sulfonyl)-phenyl]-acetic acid]	> 100	> 100	> 100
N#Cc1ccc(N2CCN(S(=O)(=O)c3cccc(CC(=O)O)c3)CC2)cc1 [Example 122, {3-[4-(4-Cyano-phenyl)-piperazine-1-sulfonyl]-phenyl}-acetic acid]	5 to 100	> 100	> 100
O=C(O)Cc1cccc(S(=O)(=O)N2CCN(Cc3ccc(F)cc3)CC2)c1 [Example 123, {3-[4-(4-Fluoro-benzyl)-piperazine-1-sulfonyl]-phenyl}-acetic acid]	5 to 100	> 100	5 to 100
COc1ccc(N2CCN(S(=O)(=O)c3cccc(CC(=O)O)c3)CC2)cc1 [Example 124, {3-[4-(4-Methoxy-phenyl)-piperazine-1-sulfonyl]-phenyl}-acetic acid]	5 to 100	> 100	5 to 100
CC(C)(C)c1ccc(N2CCN(S(=O)(=O)c3cccc(CC(=O)O)c3)CC2)cc1 [Example 126, {3-[4-(4-tert-butyl-phenyl)-piperazine-1-sulfonyl]-phenyl}-acetic acid]	5 to 100	5 to 100	< 5
O=C(O)Cc1cccc(S(=O)(=O)N2CCN(c3ccc(C(F)(F)F)cc3[N+](=O)[O-])CC2)c1 [Example 128, {3-[4-(2-Nitro-4-trifluoromethyl-phenyl)-piperazine-1-sulfonyl]-phenyl}-acetic acid]	5 to 100	5 to 100	5 to 100
O=C(O)Cc1cccc(S(=O)(=O)N2CCN(C3CCCCC3)CC2)c1 [Example 130, [3-(4-Cyclohexyl-piperazine-1-sulfonyl)-phenyl]-acetic acid]	> 100	> 100	5 to 100
O=C(O)Cc1cccc(S(=O)(=O)N2CCN(CC3CCCCC3)CC2)c1 [Example 132, [3-(4-Cyclohexylmethyl-piperazine-1-sulfonyl)-phenyl]-acetic acid]	> 100	> 100	5 to 100

Continued, values first:

EC50 [1] [µM]	EC50 [2] [µM]	EC50 [3] [µM]	Structure (SMILES)
< 5	5 to 100	5 to 100	O=C(O)Cc1cccc(S(=O)(=O)N2CCN(c3ccc(Cl)c(Cl)c3)CC2)c1 [Example 115, {3-[4-(3,4-Dichloro-phenyl)-piperazine-1-sulfonyl]-phenyl}-acetic acid]
< 5	> 100	5 to 100	O=C(O)Cc1cccc(S(=O)(=O)N2CCN(c3ccc(Cl)cc3)CC2)c1 [Example 116, {3-[4-(4-Chloro-phenyl)-piperazine-1-sulfonyl]-phenyl}-acetic acid]
< 5	> 100	5 to 100	Cc1ccc(N2CCN(S(=O)(=O)c3cccc(CC(=O)O)c3)CC2)c(C)c1 [Example 117, {3-[4-(2,4-Dimethyl-phenyl)-piperazine-1-sulfonyl]-phenyl}-acetic acid]
5 to 100	5 to 100	5 to 100	Cc1ccc(N2CCN(S(=O)(=O)c3cccc(CC(=O)O)c3)CC2)cc1C [Example 119, {3-[4-(3,4-Dimethyl-phenyl)-piperazine-1-sulfonyl]-phenyl}-acetic acid]
> 100	> 100	> 100	Cc1ccc(Cl)cc1N1CCN(S(=O)(=O)c2cccc(CC(=O)O)c2)CC1 [Example 120, {3-[4-(5-Chloro-2-methyl-phenyl)-piperazine-1-sulfonyl]-phenyl}-acetic acid]
5 to 100	5 to 100	5 to 100	O=C(O)Cc1cccc(S(=O)(=O)N2CCN(c3cccc(Br)c3)CC2)c1 [Example 125, {3-[4-(3-Bromo-phenyl)-piperazine-1-sulfonyl]-phenyl}-acetic acid]
> 100	> 100	> 100	COc1ccc(N2CCN(S(=O)(=O)c3cccc(CC(=O)O)c3)CC2)cc1OC [Example 127, {3-[4-(3,4-Dimethoxy-phenyl)-piperazine-1-sulfonyl]-phenyl}-acetic acid]
> 100	> 100	> 100	COc1ccccc1N1CCN(S(=O)(=O)c2cccc(CC(=O)O)c2)CC1 [Example 129, {3-[4-(2-Methoxy-phenyl)-piperazine-1-sulfonyl]-phenyl}-acetic acid]
5 to 100	> 100	5 to 100	Cc1ccc(C)c(N2CCN(S(=O)(=O)c3cccc(CC(=O)O)c3)CC2)c1 [Example 131, {3-[4-(2,5-Dimethyl-phenyl)-piperazine-1-sulfonyl]-phenyl}-acetic acid]
> 100	> 100	> 100	N#Cc1ccccc1N1CCN(S(=O)(=O)c2cccc(CC(=O)O)c2)CC1 [Example 133, {3-[4-(2-Cyano-phenyl)-piperazine-1-sulfonyl]-phenyl}-acetic acid]
